Assay results from the supplement of paper PMC8024199.
± gives the standard deviation of the averaged measurements.

Assays:
Assay in all cases: drug sensitivity score (DSS) (DSS score); higher = more sensitive (stronger growth inhibition); extreme values may be limits of the assay
[1] = tested on: Ba/F3 P210-BCR-ABL1 RUNX1-/- (mouse)
Outline: (§1)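 A drug sensitivity score summarised each dose-response curve, with luminescence from CellTiter-Glo scaled between vehicle and positive-control wells. Values are the mean of two replicates. The cells were mouse Ba/F3 clones that were CRISPR/Cas9-edited at a target exon or were edited controls, exposed on pre-printed 384-well plates to a 528-compound library at five concentrations spanning a 10,000-fold range. Plates held 10,000 cells per well in RPMI with 10% FBS for 72 h at 37 °C and 5% CO2.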

[2] = tested on: Ba/F3 P210-BCR-ABL1 RUNX1wt/wt control (mouse)
Outline: as §1

[3] = tested on: Ba/F3 P210-BCR-ABL1 RUNX1-/mut (mouse)
Outline: as §1

| SMILES | drug sensitivity score [1] | drug sensitivity score [2] | drug sensitivity score [3] |
| --- | --- | --- | --- |
| COc1ccccc1S(=O)(=O)Nc1ccc2c(c1)CN(C)C(=O)N2 [PFI-1] | 16 ± 2.8 | 9.35 ± 0.071 | 15.9 ± 3.9 |
| CN1CCN(c2cc(C(=O)Nc3ccc4c(c3)-c3c(c(C(N)=O)nn3-c3ccc(F)cc3)CC4)c(Cl)cn2)CC1 [PHA 408] | 10.2 ± 1.1 | 7.4 ± 0.57 | 8.95 ± 1.1 |
| O=C(Nc1cc(Cl)cc2c1[nH]c1cnccc12)c1cccnc1 [PS-1145] | 0.4 ± 0.57 | 0 | 0.7 ± 0.99 |
| COc1cc(Br)c(Nc2nc(-c3c(C)nc4ncccn34)cs2)c(Br)c1 [PTC-209] | 9.05 ± 2.6 | 7.5 ± 0.14 | 7.8 ± 2.4 |
| C1=N/C2=N/c3ccc(OCCN4CCCC4)c(c3)COC/C=C/COCc3cccc(c3)C(=C1)N2 [Pacritinib] | 13.8 ± 1.6 | 7 ± 0.14 | 10.8 ± 2.6 |
| CC(=O)c1c(C)c2cnc(Nc3ccc(N4CCNCC4)cn3)nc2n(C2CCCC2)c1=O [Palbociclib] | 11.4 ± 1.3 | 2.25 ± 0.21 | 8.85 ± 1.1 |
| COc1ccc(COc2cc3oc(=O)c4cc(C(C)O)ccc4c3cc2OC)cc1 (stereo not drawn) [Palomid-529] | 0.05 ± 0.071 | 0.4 ± 0.42 | 1.7 ± 2.4 |
| Nc1nc2[nH]cc(CCc3ccc(C(=O)N[C@@H](CCC(=O)O)C(=O)O)cc3)c2c(=O)[nH]1 [Pemetrexed] | 27.8 ± 1.6 | 26.6 ± 0.42 | 27 ± 0.71 |
| CCCCCCCCCCCCCCCCCCOP(=O)([O-])OC1CC[N+](C)(C)CC1 [Perifosine] | 0 | 0 | 0 |
| NS(=O)(=O)OC[C@@H]1C[C@@H](n2ccc3c(N[C@H]4CCc5ccccc54)ncnc32)C[C@@H]1O [Pevonedistat] | 16.1 ± 2.4 | 7.65 ± 0.21 | 15.4 ± 2 |
| FC(F)(F)c1ccc(CNc2ccc(Cc3c[nH]c4ncc(Cl)cc34)cn2)cn1 [Pexidartinib] | 0.05 ± 0.071 | 0.1 ± 0.14 | 0.1 ± 0.14 |
| CC(C)N(C[C@H]1O[C@@H](n2cnc3c(N)ncnc32)[C@H](O)[C@@H]1O)[C@H]1C[C@@H](CCc2nc3cc(C(C)(C)C)ccc3[nH]2)C1 [Pinometostat] | 0 | 0 | 0 |
| Cc1ccc(=O)n(-c2ccccc2)c1 [Pirfenidone] | 0 | 0 | 0 |
| NCCNc1ccc(NCCN)c2c1C(=O)c1ccncc1C2=O [Pixantrone] | 1.95 ± 1.3 | 0 | 2.45 ± 1.1 |
| c1cc(CN2CCCNCCNCCCNCC2)ccc1CN1CCCNCCNCCCNCC1 [Plerixafor] | 0.05 ± 0.071 | 0 | 0.05 ± 0.071 |
| Nc1cccc2c1C(=O)N(C1CCC(=O)NC1=O)C2=O (stereo not drawn) [Pomalidomide] | 0 | 0 | 0 |
| Cc1ccc(C(=O)Nc2ccc(CN3CCN(C)CC3)c(C(F)(F)F)c2)cc1C#Cc1cnc2cccnn12 [Ponatinib] | 36.2 ± 2.4 | 30.2 ± 0.57 | 31.6 ± 0.28 |
| C=CC(=O)N1CCC(Oc2cc3c(Nc4ccc(Cl)c(Cl)c4F)ncnc3cc2OC)CC1 [Poziotinib] | 0 | 0 | 0 |

| SMILES | drug sensitivity score [1] | drug sensitivity score [2] | drug sensitivity score [3] |
| --- | --- | --- | --- |
| CCCCc1nc2cc(/C=C/C(=O)NO)ccc2n1CCN(CC)CC [Pracinostat] | 20.7 ± 0.57 | 17.4 ± 0.49 | 19.4 ± 0.35 |
| CC[C@H](C)C(=O)O[C@H]1C[C@H](O)C=C2C=C[C@H](C)[C@H](CC[C@@H](O)C[C@@H](O)CC(=O)O)[C@H]21 [Pravastatin] | 0.1 ± 0.14 | 0.1 ± 0.14 | 0 |
| COc1cccc(OCCCN)c1-c1cc(Nc2cnc(C#N)cn2)n[nH]1 [Prexasertib] | 32.5 ± 2.5 | 30.4 ± 1.3 | 31.4 |
| Cn1cc(CNCC2CCN(c3ncc(C(=O)NO)cn3)CC2)c2ccccc21 [Quisinostat] | 21.6 ± 1.3 | 15.3 ± 0.28 | 17.95 ± 0.071 |
| Nc1cc(F)ccc1NC(=O)/C=C/c1cnn(C/C=C/c2ccccc2)c1 [RGFP966] | 4.8 ± 1.1 | 1.3 ± 0.28 | 4.25 ± 0.78 |
| COC(=O)c1ccc([C@H]2c3[nH]c4ccccc4c3C[C@H](C(=O)OC)N2C(=O)CCl)cc1 [RSL3] | 0 | 0 | 0.3 ± 0.42 |
| Cc1cnc(NC(=O)Nc2cc(Br)c(C)cc2OC[C@@H]2CNCCO2)cn1 [Rabusertib] | 3.25 ± 1.6 | 0.45 ± 0.49 | 3.3 ± 0.14 |
| Cc1cn(-c2cc(NC(=O)c3ccc(C)c(Nc4nccc(-c5cnccn5)n4)c3)cc(C(F)(F)F)c2)cn1 [Radotinib] | 28.9 ± 8.2 | 27.9 ± 0.14 | 30.9 ± 0.64 |
| CC(C)(C)Cn1c(N)nc2ccc(-c3[nH]c(C(C)(C)C)nc3-c3ccc(F)cc3)nc21 [Ralimetinib] | 9.6 ± 3.2 | 0.7 ± 0.99 | 8 ± 4.2 |
| O=C(c1ccc(OCCN2CCCCC2)cc1)c1c(-c2ccc(O)cc2)sc2cc(O)ccc12 [Raloxifene] | 5.4 ± 2.3 | 3.7 ± 1.8 | 5.05 ± 3.3 |
| Cc1nc(=O)c2cc(CN(C)c3ccc(C(=O)N[C@@H](CCC(=O)O)C(=O)O)s3)ccc2[nH]1 [Raltitrexed] | 23.4 ± 2.2 | 17.4 ± 0.57 | 20.3 ± 0.28 |
| Cn1nccc1Nc1nccc(-c2ccn([C@H](CO)c3ccc(Cl)c(F)c3)c(=O)c2)n1 [Ravoxertinib] | 2.75 ± 2.6 | 0.05 ± 0.071 | 1.3 ± 1.8 |
| CCOC(=O)C1=CCCC[C@H]1S(=O)(=O)Nc1ccc(F)cc1Cl [Resatorvid] | 0 | 0 | 0 |
| CCOCc1nc2c(N)nc3ccccc3c2n1CC(C)(C)O [Resiquimod] | 3.6 | 0.15 ± 0.21 | 3.6 ± 5.1 |
| CN(C)Cc1ccc(S(=O)(=O)n2ccc(/C=C/C(=O)NO)c2)cc1 [Resminostat] | 15.8 ± 0.78 | 13.1 ± 0.57 | 15.2 ± 0.92 |
| CN(C)C(=O)c1cc2cnc(Nc3ccc(N4CCNCC4)cn3)nc2n1C1CCCC1 [Ribociclib] | 4.6 ± 2.3 | 0 | 1.85 ± 2.5 |
| CO[C@H]1C[C@@H]2CC[C@@H](C)[C@@](O)(O2)C(=O)C(=O)N2CCCC[C@H]2C(=O)O[C@H]([C@H](C)C[C@@H]2CC[C@@H](OP(C)(C)=O)[C@H](OC)C2)CC(=O)[C@H](C)/C=C(\C)[C@@H](O)[C@@H](OC)C(=O)[C@H](C)C[C@H](C)/C=C/C=C/C=C/1C [Ridaforolimus] | 13.3 ± 3.8 | 0.15 ± 0.21 | 15.7 ± 2.7 |
| COc1cc(OC)c(/C=C/S(=O)(=O)Cc2ccc(OC)c(NCC(=O)O)c2)c(OC)c1 [Rigosertib] | 26.8 ± 1.1 | 15.6 ± 1.4 | 27.05 ± 0.071 |
